# Measurements from PubChem BioAssay (NCI).
#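 Following 48 hours of exposure in 96-well plates, responses at five concentrations were used to interpolate endpoints linearly. TGI marks complete inhibition of growth.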
# Experiments:
# Assay in all cases: growth of human tumour cells (NCI), 48 h
# [1] = system: SR leukemia
# [2] = system: HCT-15 colon
# [3] = system: U251 CNS
# [4] = system: HCT-116 colon
# [5] = system: NCI-H226 lung
# [6] = system: HOP-92 NSCLC
# [7] = system: SW-620 colon
# [8] = system: UACC-257 melanoma
# [9] = system: HL-60(TB) leukemia
# [10] = system: SK-MEL-2 melanoma
Structure (SMILES),TGI [1] [µM],TGI [2] [µM],TGI [3] [µM],TGI [4] [µM],TGI [5] [µM],TGI [6] [µM],TGI [7] [µM],TGI [8] [µM],TGI [9] [µM],TGI [10] [µM]
NC(CCSCC(F)F)C(=O)O (stereo not given),> 100,> 100,> 100,> 100,> 100,> 100,> 100,> 100,> 100,–
CCOC(=O)c1[nH]c2nc(SC)nc(NC)c2c1N,–,> 100,> 100,> 100,> 100,–,> 100,> 100,–,> 100
Clc1cccc(C2ON=C(c3ccccc3)N2C23CC4CC(CC(C4)C2)C3)c1Cl (stereo not given),–,> 10,> 10,> 10,> 10,> 10,> 10,> 10,–,> 10
O=[N+]([O-])c1ccc2nc3c(nc2c1)-c1c2ccccc2cc2cccc-3c12,–,> 100,> 66,> 100,> 100,58,> 100,> 94.6,> 100,90
O=c1c2cc3c(=O)n(CCc4ccccc4CO)c(=O)c3cc2c(=O)n1CCc1ccccc1CO,–,> 100,> 100,> 100,> 100,–,> 100,> 100,> 100,> 100
CCOC(=O)C(C)NC(=O)N(C)C12CC3CC(CC(C3)C1)C2 (stereo not given),–,490,> 500,> 500,489,283,494,406,272,> 316
CCOC(=O)c1ccc(C(=O)/C(C(=O)OC(C)(C)C)=C2\CCCN2C)n1C,> 100,> 100,> 100,> 100,> 100,–,> 100,> 100,70.5,> 100
CC1=NC(C)(C)N(O)C1(C)C,> 100,> 100,> 100,> 100,> 100,> 100,> 100,–,> 100,> 100
O=C(NN1C(=O)CSC1c1ccc(Cl)c(Cl)c1)c1ccncc1 (stereo not given),–,> 100,> 100,–,–,–,> 100,> 100,> 100,> 100
COc1cc(CCCOC2OC(COC3OCC(O)C(O)C3O)C(O)C(O)C2O)cc2cc(-c3ccc4c(c3)OCO4)oc12 (stereo not given),–,> 175,> 175,> 175,> 175,> 175,> 175,> 175,> 175,> 175
CCOC(=O)c1csc(NC(=O)CCCC#N)n1,> 100,> 100,> 100,–,> 100,> 100,> 100,> 100,> 100,> 100
CN1c2ccccc2C(=O)NC12CCN(CC1COc3ccccc3O1)CC2 (stereo not given),> 100,–,> 100,> 100,87.4,71.3,> 100,> 100,> 100,–
